The record followed here is patent US9492554B2, “Methods and compositions related to viral inhibition” (Clemson University Research Foundation (CURF), priority 2009, dated 2016).

As usually defined, the IC50 is the concentration needed to halve the response being measured. A high value points to weaker potency in that assay.

Where only a bound is given, the exact number is not on record here.

The test system of series [1] is TAR RNA. Put plainly: UV melting of TAR RNA in presence of ligands (Tm, ΔTm). It counts as binding, HIV-1. Conditions: for ΔTm (° C.): TAR RNA with ligand vs control, Table 10; for Tm (° C.): TAR RNA with ligand, control without ligand 69.3.
Procedure: The reactions were done in the presence of 10 mM sodium cacodylate, 0.5 mM EDTA, 0.1 mM MgCl2 pH 7.0. The heating rate was 0.3° C./min.
UV melting studies of TAR were performed in the presence and absence of various ligands (FIG. 13).
The target of series [2] is HIV-1 TAR RNA. In words: HIV-1 TAR RNA competition FRET binding assay (Tat peptide probe). Conditions: 100 nM TAR RNA, 100 nM Tat peptide, 25° C., 60 min. The method, then:
Before used, HIV-1 TAR RNA (5′-GGC AGA UCUGAG CCU GGG AGC UCU CUG CC-3′, Thermo Scientific) in 10 μM batch in sterile water was heated to 95° C. for 4.5 min, and then cooled rapidly in ice bath for 5 min. This snap-cooling causes the RNA to adopt the kinetically favored hairpin rather than thermodynamically favored duplexes.
The relative affinity of each polyamine for HIV-1 TAR RNA was determined using Fluorescence Resonance Energy Transfer (FRET)-based competitive binding assay with a fluorescein-labeled HIV-1 Tat peptide as described in the literature. The fluorescence experiments were performed with a Spectra Max Fluorimeter (Molecular Devices) at 25° C., with excitation and emission wavelengths of 495 and 570 nm, respectively. All samples were prepared in 96 well plates in 1×TK buffer (50 mM Tris, 20 mM KCl, pH=7.4) with 0.1% Trixton-100 (Sigma).
To a solution of 100 nM HIV-1 TAR RNA and 100 nM fluorescein-labeled HIV-1 Tat peptide, appropriate concentrations (0 nM to 100 μM) of the antagonists were added at 25° C.; total volume of the incubation solution was 80 μL. After 60 min, fluorescence changes of the sample solution were determined by the Spectra Max Fluorimeter Detector.

The test system of series [3] is cells.
The target in series [4] is HIV-1 RRE RNA. Put plainly: HIV-1 RRE RNA competition binding assay (fluorescence polarization, Rev peptide probe). Conditions: 100 nM RRE RNA, 10 nM Rev peptide, 25° C., 1 hour; Table 16. The method, then:
Before used, HIV-1 RRE RNA (5′-GGUCUGGGCGCAGCGCAAGCUGACGGUACAGGCC-3′, Thermo Scientific) in 10 μM batch in sterile water was heated to 95° C. for 3 min, and then cooled to ambient temperature over 1 hour.
The relative affinity of each compound for HIV-1 RRE RNA was determined using fluorescence polarization-based competitive binding assay with a fluorescein-labeled HIV-1 Rev peptide. The anisotropy experiments were performed with a Spectra Max Fluorimeter (Molecular Devices) at 25° C., with excitation and emission wavelengths of 485 and 525 nm, respectively. All samples were prepared in 96 well plates in binding buffer (30 mM Hepes, 100 mM KCl, 40 mM NaCl, 10 mM NH4OAc, 10 mM Guanidinium Hydrochloride, 2 mM MgCl2, 0.5 mM EDTA, pH 7.4) with 0.01% triton-X100 (Sigma). The binding data reported for each conjugate are the averages of 3˜5 individual measurements.
A solution of 100 nM RRE RNA and 10 nM fluorescein-labeled HIV-1 Rev peptide was incubated at 25° C. After 10 min, appropriate concentrations (0 nM to 500 μM) of the antagonists were added; total volume of the incubation solution was […]. After 1 hour, the amount of the dissociated fluorescent probe was determined by the Spectra Max fluorescence plate reader. The experimental dose-response data for a given antagonist were fit to a sigmoidal dose-response nonlinear regression model on GraphPad Prism 4.0 to afford the IC50 values for each conjugates (Table 16).
Background: In fluorescence polarisation assays a small probe gives low polarisation when free and higher when bound to something large.

The subject of series [5] is HIVNL4-3 in MT-2 cells. Put plainly: Release of reverse transcriptase into the culture supernatant. The series is classed as cell-based, HIV. The source says: The disclosed conjugates also reduce the amount of reverse transcriptase (RT) released into the cell culture supernatant upon in vitro cell culture experiments (Table 14 below). […] It is possible that even though the cells are positive for HIV, they are making much fewer unspliced transcripts, and thus the virion release into the media remains suppressed. […] Anti-HIV activities can be routinely checked by measuring the percentage of cells positive for HIV antigens using immunofluorescence assay (IFA) and for the release of pelletable reverse transcriptase (RT) into the supernatant. For these assays, 500,000 MT-2 cells in 1 ml of media were added to the wells of a 24 well tissue culture plate. Next, 0.5 ml of 4× concentrated compound was added to triplicate wells of the plate. The cells and compounds were incubated for 1 hr at 37 C. Finally, 0.5 ml of HIVNL4-3, produced in H9 cells (a CD4+ lymphoblastoid cell line), 100,000 cpm of RT activity per well, was added to each well. Virus control wells contained no compounds. This inoculum is at a multiplicity of infection less than 1. […] Next, cells were resuspended in the media and 0.5 mls of the total remaining volume was removed for IFA. Cells were combined from their triplicate infections, pelleted, and the enriched cells were air-dried onto glass slides. The dried cells were fixed in acetonemethanol (50:50). After fixing, cells were stained with HIV immunoglobulin, washed in PBS, and counter-stained with FITC-conjugated goat and human IgG. Slides were washed in PBS and the percentage of HIV-positive cells was determined by epifluorescence (Robinson et al. […] The supernatants from each well were precipitated at 4 C overnight in a solution including 30% polyethylene glycol. After precipitation, precipitate was lysed in a solution containing Triton X100, Tris buffer, and DTT. RT activity of each aliquot was determined as incorporation of 3H-dTTP into a poly rA-oligo dT template. After a one hour assay at 37 C, the incorporated dTTP was precipitated onto a ZetaProbe (BioRad) membrane. Slots were excised and placed into liquid scintillation cocktail. After overnight incubation, counts per minute for each sample was determined on a beta counter. Results were calculated as cpm/ml of original culture supernatant (Robinson et al.

Series [6] concerns HIVNL4-3 in MT-2 cells. In words: HIV antigen synthesis in treated cells, immunofluorescence assay (IFA). The series is classed as cell-based. The method, then: Anti-HIV activities can be routinely checked by measuring the percentage of cells positive for HIV antigens using immunofluorescence assay (IFA) and for the release of pelletable reverse transcriptase (RT) into the supernatant. For these assays, 500,000 MT-2 cells in 1 ml of media were added to the wells of a 24 well tissue culture plate. Next, 0.5 ml of 4× concentrated compound was added to triplicate wells of the plate. The cells and compounds were incubated for 1 hr at 37 C. Finally, 0.5 ml of HIVNL4-3, produced in H9 cells (a CD4+ lymphoblastoid cell line), 100,000 cpm of RT activity per well, was added to each well. Virus control wells contained no compounds. This inoculum is at a multiplicity of infection less than 1. On days 2, 4, and 6, 0.75 mls of supernatants were removed and placed into individual microfuge tubes for RT assay. Next, cells were resuspended in the media and 0.5 mls of the total remaining volume was removed for IFA. Cells were combined from their triplicate infections, pelleted, and the enriched cells were air-dried onto glass slides. The dried cells were fixed in acetonemethanol (50:50). After fixing, cells were stained with HIV immunoglobulin, washed in PBS, and counter-stained with FITC-conjugated goat and human IgG. Slides were washed in PBS and the percentage of HIV-positive cells was determined by epifluorescence (Robinson et al. J Acquire Immune Defic Syndr 2:33-42, 1989).

For the compound `CN1CCN(c2ccc3nc(-c4ccc(OCc5cn(CCn6cc(CCCCc7cn(C[C@H]8OC(OC9C(O)[C@H](N)CC(N)[C@H]9O[C@H]9OC(CN)[C@@H](O)C(O)C9N)C(O)C8O[C@H]8OC(CN)[C@@H](O)C(O)C8N)nn7)nn6)nn5)cc4)[nH]c3c2)CC1` (stereo partly shown) [DPA113], in series [1], the “ΔTm (° C.)” value was 3.1 °C and the “Tm (° C.)” value is 72.4 °C. The IC50 in series [2] (Table 17) was determined as 61300 ± 18100 nM. In series [3], the “5% Toxicity microM” value was 176 µM.

For the compound `CN1CCN(c2ccc3nc(-c4ccc(OCc5cn(CCCCCCn6cc(CCCCc7cn(C[C@H]8OC(OC9C(O)[C@H](N)CC(N)[C@H]9O[C@H]9OC(CN)[C@@H](O)C(O)C9N)C(O)C8OC8OC(CN)C(O)C(O)C8N)nn7)nn6)nn5)cc4)[nH]c3c2)CC1` (stereo partly shown) [DPA114], in series [1], the “ΔTm (° C.)” value was found to be 3.8 °C and the “Tm (° C.)” value is 73.1 °C. In addition, the IC50 in series [2] (Table 17) came out at 11600 ± 2300 nM. In series [3], the “5% Toxicity microM” value was 11 µM.

For `CN1CCN(c2ccc3nc(-c4ccc(OCc5cn(CCCCCCCCn6cc(CCCCc7cn(C[C@H]8OC(OC9C(O)[C@H](N)CC(N)[C@H]9O[C@H]9OC(CN)[C@@H](O)C(O)C9N)C(O)C8O[C@H]8OC(CN)[C@@H](O)C(O)C8N)nn7)nn6)nn5)cc4)[nH]c3c2)CC1` (stereo partly shown) [DPA116], in series [1], the “ΔTm (° C.)” value is 3.8 °C and the “Tm (° C.)” value worked out at 73.1 °C. The IC50 in series [2] (Table 17) was determined as 4300 ± 600 nM. For the same compound, the “5% Toxicity microM” value in series [3] was 83 µM.

Consider `CN1CCN(c2ccc3nc(-c4ccc(OCc5cn(CCCCCCCCCCn6cc(CCCCc7cn(C[C@H]8OC(OC9C(O)[C@H](N)CC(N)[C@H]9O[C@H]9OC(CN)[C@@H](O)C(O)C9N)C(O)C8O[C@H]8OC(CN)[C@@H](O)C(O)C8N)nn7)nn6)nn5)cc4)[nH]c3c2)CC1` (stereo partly shown) [DPA117], for which, in series [1], the “ΔTm (° C.)” value was found to be 6.3 °C and the “Tm (° C.)” value worked out at 75.6 °C. The same compound showed a half-inhibitory concentration (IC50) in series [2] (Table 17) of 1300 ± 200 nM. This compound also had an IC50 in series [4] of 15500 ± 6300 nM. Besides, in series [3], the “5% Toxicity microM” value is 41 µM.

With `CN1CCN(c2ccc3nc(-c4ccc(OCCn5cc(-c6ccc(-c7cn(C[C@H]8OC(OC9C(O)[C@H](N)CC(N)[C@H]9O[C@H]9OC(CN)[C@@H](O)C(O)C9N)C(O)C8O[C@H]8OC(CN)[C@@H](O)C(O)C8N)nn7)cc6)nn5)cc4)[nH]c3c2)CC1` (stereo partly shown) [DPA118], in series [1], the “ΔTm (° C.)” value was 4.8 °C and the “Tm (° C.)” value turned out to be 74.1 °C. In series [2] (Table 17), this compound gave a concentration for half-maximal inhibition (IC50) of 12100 ± 5400 nM. Moreover, in series [3], the “5% Toxicity microM” value is more than 184 µM.

`CN1CCN(c2ccc3nc(-c4ccc(OCCn5cc(CCCc6cn(C[C@H]7OC(OC8C(O)[C@H](N)CC(N)[C@H]8O[C@H]8OC(CN)[C@@H](O)C(O)C8N)C(O)C7O[C@H]7OC(CN)[C@@H](O)C(O)C7N)nn6)nn5)cc4)[nH]c3c2)CC1` (stereo partly shown) [DPA120]: in series [1], the “ΔTm (° C.)” value was found to be 3.9 °C and the “Tm (° C.)” value is 73.2 °C. The IC50 in series [2] (Table 17) stood at 1700 ± 300 nM. Also, in series [4], the IC50 was 15300 ± 6900 nM. Besides, the “5% Toxicity microM” value in series [3] stood at 94 µM.

For the compound `CN1CCN(c2ccc3nc(-c4ccc(OCCn5cc(CCCCCCc6cn(C[C@H]7OC(OC8C(O)[C@H](N)CC(N)[C@H]8O[C@H]8OC(CN)[C@@H](O)C(O)C8N)C(O)C7O[C@H]7OC(CN)[C@@H](O)C(O)C7N)nn6)nn5)cc4)[nH]c3c2)CC1` (stereo partly shown) [DPA122], in series [1], the “ΔTm (° C.)” value worked out at 5.4 °C and the “Tm (° C.)” value is 74.8 °C. The compound further showed an IC50 in series [2] (Table 17) of 825 ± 145 nM. The same compound showed an IC50 in series [4] of 5.4 ± 2.4 nM. Further, the “5% Toxicity microM” value in series [3] was 46 µM.

With `CN1CCN(c2ccc3nc(-c4ccc(OCc5cn(C[C@H]6OC(OC7C(O)[C@H](N)CC(N)[C@H]7O[C@H]7OC(CN)[C@@H](O)C(O)C7N)C(O)C6O[C@H]6OC(CN)[C@@H](O)C(O)C6N)nn5)cc4)[nH]c3c2)CC1` (stereo partly shown) [DPA123], the IC50 in series [2] (Table 18) came out at 155 ± 49 nM; in series [4], 768 ± 309 nM.

Regarding `NCC1O[C@H](OC2C(N)C[C@@H](N)C(O)[C@H]2O[C@@H]2O[C@H](Cn3cc(CCCCCCc4cn(C[C@H]5O[C@@H](O[C@H]6C(O[C@H]7OC(CN)C(O)[C@H](O)C7N)C(N)C[C@@H](N)C6O)[C@@H](O)C5O[C@H]5O[C@@H](CN)C(O)C(O)C5N)nn4)nn3)C(O[C@H]3O[C@@H](CN)C(O)C(O)C3N)[C@@H]2O)C(N)[C@@H](O)C1O` (stereo partly shown) [DPA 56], the “Release of reverse transcriptase into the culture supernatant, Day 2” value in series [5] (Day 2, mean of triplicate infections (SD), microM: DPA119 24, DPA52 25, DPA53 9, DPA54 17, DPA55 4, DPA56 8, DPA121 25, virus control 46,029) is on record as 15,989 (2,523) cpm/ml. In addition, the “Release of reverse transcriptase into the culture supernatant, Day 4” value in series [5] (Day 4, mean of triplicate infections, virus control 928,112) is on record as 105,704 cpm/ml. For the same compound, the “Release of reverse transcriptase into the culture supernatant, Day 6” value in series [5] (Day 6, mean of triplicate infections, virus control 1,078,741) is 412,475 cpm/ml. In series [6] (Day 2, MT-2 cells, microM: DPA119 24, DPA52 25, DPA53 9, DPA54 17, DPA55 4, DPA56 8, DPA121 25, virus control 15%), the “percentage of cells positive for HIV antigens, Day 2” value is reported as 5-7%. In addition, the “percentage of cells positive for HIV antigens, Day 4” value in series [6] (Day 4, same concentrations, virus control 100%) came to 40%. In addition, in series [6] (Day 6, same concentrations, virus control 100%), the “percentage of cells positive for HIV antigens, Day 6” value turned out to be 100%. Besides, in series [3], the “5% Toxicity microM” value is 34 µM.
